According to the supplement of paper PMC5580409:

Tested on: Plasmodium falciparum 3D7
Assay: pEC50, asexual blood-stage growth inhibition
Settings: 72 h
Experimental: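 Held-out test set measured in the Guy lab in 2014 with the same procedure as the primary St. Jude screen. P. falciparum 3D7 blood-stage culture (2% hematocrit, 1% parasitemia) was treated with compound for 72 h at 37 °C, and growth was read by SYBR Green I fluorescence. EC50 came from a four-parameter Hill fit over a 10-point dilution series […].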

Row | SMILES | pEC50
1 | OC(CNC1CCCCC1)COc1ccc(OCc2ccccc2)cc1 (configuration not stated) | < 4.82
2 | Cc1cccc(CN2CCCn3c4c(c5cc(C)ccc53)CCCC42)c1 (configuration not stated) | 5.33
3 | COc1ccc(S(=O)(=O)N2CCC(CO)(Cc3ccccc3C(F)(F)F)CC2)cc1 | < 4.82
4 | Cc1ccc2nc(-c3cccnc3)cc(C(=O)N3CCN(C(c4ccccc4)c4ccccc4)CC3)c2c1 | 5.71
5 | Cc1ccc(OCC(O)CNC2CCCC2)c(C)c1 (configuration not stated) | 5.19
6 | CN(C)c1ccc(NC(=O)/C=C/c2cccc(Cl)c2)cc1 | 6.39
7 | CCOc1cc(C2C(C(=O)OCC(C)C)=C(C)NC3=C2C(=O)CC(c2ccc(Cl)cc2)C3)ccc1O (configuration not stated) | < 4.82
8 | CCN1CCN(Cc2c(O)ccc3c(=O)c(Oc4ccccc4Br)c(C(F)(F)F)oc23)CC1 | 5.46
9 | O=C(Nc1ccc(-c2nc3ccccc3[nH]2)cc1)c1cncc(Br)c1 | 5.35
10 | CCOc1ccc(NC(=O)/C=C/c2ccccc2Cl)cc1 | 6.34
11 | CCOC(=O)C1=C(C)NC2=C(C(=O)CC(c3ccc(Cl)cc3)C2)C1c1cccc(OC)c1OC (configuration not stated) | < 4.82
12 | O=C(Cc1ccccc1)N1CCN(c2ccc([N+](=O)[O-])c(NC3CC3)c2)CC1 | < 4.82
13 | CCn1c(SCC(=O)Nc2cc(C(F)(F)F)ccc2Cl)nnc1-c1ccccc1Cl | < 4.82
14 | CCc1ccc(NC(=O)/C=C/c2ccccc2Cl)cc1 | 6.69
15 | O=C(c1ccccc1)N1CCN(c2ccc([N+](=O)[O-])c(NC3CC3)c2)CC1 | < 4.82
16 | COc1ccc(C)cc1S(=O)(=O)N1CCC(CO)(Cc2cccc(C(F)(F)F)c2)CC1 | < 4.82
17 | Cc1cc(S(=O)(=O)N2CCC(CO)(Cc3cccc(C(F)(F)F)c3)CC2)c(C)cc1Cl | < 4.82
18 | CCOc1cc(C2C(C(=O)OCCOc3ccccc3)=C(C)NC3=C2C(=O)CC(c2ccc(Cl)cc2)C3)ccc1O (configuration not stated) | < 4.82
19 | COc1ccc(N2CCN(C(=O)c3ccc(C)cc3)CC2)c([N+](=O)[O-])c1 | 5.23
20 | C=CCN1C(=O)N(c2ccc(Cl)cc2)C(=O)C1CC(=O)Nc1ccc(F)cc1 (configuration not stated) | < 4.82
21 | CCOC(=O)C1=C(C)NC2=C(C(=O)CC(c3ccc(Cl)cc3)C2)C1c1ccc(OCC)cc1 (configuration not stated) | < 4.82
22 | Fc1ccccc1N1CCN(CC2CC3C=CC2C3)CC1 (configuration not stated) | < 4.82
23 | OC(CNc1cccc2ccccc12)Cn1c2ccccc2c2ccccc21 (configuration not stated) | < 4.82
24 | COC(=O)[C@@H](NC(=O)c1cn(C2CCCCC2)cc(C(=O)NC(C)(C)C)c1=O)c1ccccc1 | < 4.82
25 | CCCn1nnnc1NCc1cc(Br)c(OCc2ccccc2)c(OC)c1 | < 4.82
26 | CN1CCN(Cc2c(O)ccc3c(=O)c(-c4cccc5ccccc45)c(C(F)(F)F)oc23)CC1 | < 4.82

Row | SMILES | pEC50
27 | OCCC1CN(Cc2cc(Cl)ccc2O)CCN1CCCc1ccccc1 (configuration not stated) | < 4.82
28 | CCOC(=O)c1c(C)oc2ccc(OC)cc12 | < 4.82
29 | CCOC(=O)c1cnc2ccccc2c1Nc1ccc2c(c1)OCCO2 | < 4.82
30 | CCN1/C(=C/C=C/C=C/c2sc3ccccc3[n+]2CC(=O)O)Sc2ccccc21 | < 4.82
31 | CCN(CC)CCN1C(=O)c2ccccc2NC1c1ccc(Br)cc1 (configuration not stated) | 5.74
32 | CN(C)Cc1c(O)ccc2c(=O)c(Oc3ccc(C(C)(C)C)cc3)c(C(F)(F)F)oc12 | 5.24
33 | CCOc1cc(C2C(C(=O)OCCOC)=C(C)NC3=C2C(=O)CC(c2ccc(Cl)cc2)C3)ccc1O (configuration not stated) | 5.52
34 | COc1ccc(C(O)Cn2c(=N)n(CCN3CCCCC3)c3ccccc32)cc1 (configuration not stated) | < 4.82
35 | Cc1c(Cl)ccc2c(C(=O)NCCN3CCOCC3)cc(-c3ccncc3)nc12 | < 4.82
36 | N=c1n(CCN2CCOCC2)c2ccccc2n1CC(O)COc1ccccc1 (configuration not stated) | < 4.82
37 | Cc1ccc(OCC(O)CNC2CCCC2)cc1C (configuration not stated) | 5.85
38 | Cc1cc(C)c(C)c(Oc2cc(NC(=O)c3c(I)cnn3C)cc([N+](=O)[O-])c2)c1 | 6.28
39 | CCOc1cc2c(cc1OCC)C(c1ccc(O)cc1)NCC2 (configuration not stated) | < 4.82
40 | Cc1ccc(C2CC(C(F)(F)F)n3nc(C(=O)N(Cc4ccccc4)Cc4ccccc4)cc3N2)cc1 (configuration not stated) | < 4.82
41 | O=C(Nc1ccccc1)c1ccccc1OCC(O)CN(Cc1ccccc1)Cc1ccccc1 (configuration not stated) | 6.31
42 | CCCCN(CCCC)CC(O)COc1ccccc1C (configuration not stated) | 6.06
43 | COc1ccc(Cl)cc1NCC(O)Cn1c2ccccc2c2ccccc21 (configuration not stated) | < 4.82
44 | Cc1ccc(C)c(Oc2c(C(F)(F)F)oc3c(CN4CCN(C)CC4)c(O)ccc3c2=O)c1 | < 4.82
45 | OC(CNCC1CCCO1)Cn1c2ccc(Br)cc2c2cc(Br)ccc21 (configuration not stated) | 5.76
46 | O=C(CNCc1ccccc1)c1ccc(Br)cc1 | < 4.82
47 | Cc1cccc(C2(c3cccc(C)c3)CC2C(=O)Nc2cc([N+](=O)[O-])ccc2O)c1 (configuration not stated) | 5.27
48 | COc1ccc(CCNCC(O)Cn2c3ccccc3c3ccccc32)cc1OC (configuration not stated) | 5.26
49 | CCN1\C(=C/C=C(C)/C=C/c2sc3ccccc3[n+]2CC)Sc2ccccc21 | 5.34
50 | COc1cc(C2CC(=O)NC3=C2C(=O)CC(c2ccc(OC)c(OC)c2)C3)c(OC)cc1Br (configuration not stated) | 6.86
51 | COC(=O)c1ccc(NC(=O)/C=C/c2ccccc2Cl)cc1 | 5.26
52 | Cc1ccc2c(c1)c1c3n2CCCN(Cc2ccc(Br)cc2)C3CCC1 (configuration not stated) | < 4.82
